Activity calls are given as the source filed them.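 Rule for the calls: active = fitted half-maximal concentration no higher than twice the top valid tested dose, with signal falling; inconclusive = flat curve with 30 to 70% inhibition, or poor fit; inactive = the rest.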
Molecular target: Golgi-associated PDZ and coiled-coil motif-containing protein (Homo sapiens) (UniProt Q9HD26)
Test: CAL PDZ domain peptide-binding inhibitors, dose response, biochemical, fluorescence polarization, untagged CAL PDZ, cherry-pick, set 2 (AID 602254);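 note: potency of inhibitors that displace the labelled peptide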
Conditions: Purified CAL PDZ, TMR peptide fluorescence polarization

With COc1ccc(CC2CCOC2=O)cc1 (centres undefined) the AC50 was > 120 µM (inactive).

With OCCC1CN(Cc2ccc3nsnc3c2)CCN1C1CCCCC1 (centres undefined) the AC50 was > 120 µM (inactive).

CN(Cc1ccc(Cl)s1)C(=O)CNC(=O)CNC(=O)c1ccc(Cl)cc1Cl was tested, and the AC50 was > 120 µM (inactive).

With Cc1ccc(C)c(NC(=O)CN(C)C(=O)c2ccc3c(=O)n4c(nc3c2)CCC4)c1 the AC50 was > 120 µM (inactive).

In the case of CCN(CC)c1ccc(N2C(=O)CSC2=S)cc1, the AC50 is reported as > 120 µM (inactive).

With Cc1cc(F)ccc1NC(=O)c1cc(S(=O)(=O)N2CCCC2)cn1C the AC50 was > 120 µM (inactive).

Cc1cccc(OCC(=O)OCC(=O)Nc2ccc(Cl)cn2)c1 was tested, and the AC50 was > 120 µM (inactive).

Cc1cc(NC(=O)c2c(Br)c(C)nn2C)no1 was tested, and the AC50 was > 120 µM (inactive).

With Cc1c(NS(=O)(=O)c2ccc(S(=O)(=O)c3ccccc3)s2)c(=O)n(-c2ccccc2)n1C the AC50 was > 120 µM (inactive).

For CCN(CC)CCn1c(=S)[nH]c2ccc(Br)cc2c1=O, the AC50 was > 120 µM (inactive).

For Cc1cc(NC(=O)c2ccc(C#N)cc2)n(-c2ccccn2)n1, the AC50 was > 120 µM (inactive).

For Cc1ccc2nc(COC(=O)c3ccc(Cl)nc3)cc(=O)n2c1, the AC50 was > 120 µM (inactive).

For CC(=O)N1CCc2cc(S(=O)(=O)NC(C(=O)NCc3ccccc3)C(C)C)ccc21 (centres undefined), the AC50 was > 120 µM (inactive).

CN(C)S(=O)(=O)c1cccc(COc2ncnc3c(Cl)cc(Cl)cc23)c1 was tested, and the AC50 was > 120 µM (inactive).

From PubChem BioAssay AID602254 (Broad Institute, 2012)
